The record followed here is patent US20210355105A1, “REGULATOR OF NITROGEN-CONTAINING HETEROAROMATIC DERIVATIVES, PREPARATION METHOD THEREFOR AND USE THEREOF” (Jiangsu Hansoh Pharmaceutical Group Co., Ltd., priority 2018, published 2021).

Data set [1] is described as follows: Pharmacokinetics assay in rats, oral administration. In kind it is in vivo. The settings on record: rat; male SD rats, oral 5 mg/kg, plasma. As to the method: SD rats were used as test animals.
5 g of hydroxyethyl cellulose (HEC, CMC-Na, viscosity: 800-1200 Cps) was dissolved in 1000 mL of purified water, and 10 g of Tween80 was added. The solution was mixed well to form a clear solution.
The solution was shaked well and subjected to ultrasound for 15 minutes to obtain a colorless and clear solution with a concentration of 0.5 mg/mL.
After an overnight fast, male SD rats (3 rats per group) were administrated orally with the test compounds at an administration dose of 5 mg/kg and an administration volume of 10 mL/kg.
0.2 mL of blood was taken from jugular vein before administration and at 0.5 hour, 1.0 hour, 2.0 hours, 4.0 hours, 6.0 hours, 8.0 hours and 24.0 hours after administration. The blood samples were stored in EDTA-2K tubes, and centrifuged for 6 minutes at 6000 rpm, at 4° C. to separate the blood plasma. The plasma samples were stored at −80° C. The rats were fed four hours after administration.

The test system of a further data set is NCI-H358 cells. The data set can be described thus: Proliferation inhibition of NCI-H358 cells (CellTiter-Glo). Type of data set: cell-based. Particulars: Homo sapiens, NCI-H358, 72 h; 3 days incubation. The procedure:
Experimental method: 3000 cells (90 μL of cell suspension) were inoculated to each well of a 96-well cell culture plate (Corning, #3610). The culture plate was incubated in an incubator overnight (37° C., 5% CO2). On the next day, 10 μL of gradient dilutions of the test compound solution (the final DMSO content was 0.2%, V/V, the final concentration of the reaction system ranged from 10 μM to 4.5 nM) was added to each well of the culture plate. At the same time, full activity control (compound only with DMSO) and full inhibition control (no cells) were set up on the reaction plate. The culture plate was incubated in the incubator for 3 days (37° C., 5% CO2).
After completion of the incubation, 50 μL of CellTiter-Glo reagent was added to each well of the cell culture plate, which was left to stand at room temperature for 10 minutes. The chemiluminescence signal value was measured in the Synergy H1 full-function microplate reader (BioTek). […] The IC50 value of the test compounds was calculated by fitting the percentage inhibition rate and data of eight concentrations to a four-parameter nonlinear logic formula with GraphPad prism.
The IC50 value was calculated by fitting the data of different concentrations and corresponding percentage inhibition rates to a four-parameter nonlinear logic formula with GraphPad prism.

A further data set concerns the target T1, hERG potassium channel (Homo sapiens, UniProt Q12809).
T1 construct: expressed in transfected cells; host or cells: CHO-hERG cells
The data set can be described thus: Inhibitory activity on hERG potassium channel (Qpatch, CHO-hERG cells). In kind it is cell-based. The settings on record: six concentrations up to 40 μM, read-out: hERG (inhibitory effect on hERG current). The procedure: 8.1.1 CHO-hERG cells were cultured in a 175 cm^2 culture flask. When the cells were grown to a density of 60 to 80%, the culture solution was removed, and the cells were washed once with 7 mL of PBS, and then 3 mL of Detachin was added for digestion of the cells.
8.1.2 After the digestion was complete, the cells were neutralized by adding 7 mL of the culture solution and then centrifuged. The supernatant was removed, and then 5 mL of the culture solution was added for resuspension to ensure a cell density of 2-5×10^6 cells/mL.
The single-cell high-impedance sealing and whole-cell pattern formation processes were both completed automatically by the Qpatch instrument. After the whole-cell recording pattern was obtained, the cells were clamped at −80 millivolts. A pre-voltage of −50 millivolts was applied for 50 milliseconds prior to the application of a depolarizing stimulus of +40 millivolts for 5 seconds, and then the cells were repolarized to −50 millivolts and maintained for 5 seconds, and then returned back to −80 millivolts. This voltage stimulation was applied every 15 seconds, and data were recorded for 2 minutes, and thereafter the extracellular fluid was administered and data were recorded for 5 minutes, and then the administration process was started. The compound was administered from the lowest test concentration, and 2.5 minutes were given for each test concentration. After all the concentrations of the compound were administered, […] Cisapride as a positive control compound was administered. At least three cells (n≥3) were tested for each concentration.
8.4.1 20 mM compound mother solution was diluted with the extracellular fluid. 5 μL of the 20 mM compound mother solution was diluted 500 times to 40 μM by adding 2495 μL of the extracellular fluid, and then 3-fold serial dilutions were performed sequentially in the extracellular fluid containing 0.2% DMSO to obtain a final concentration to be tested.
8.4.2 The highest test concentration was 40 μM, and there were six concentrations in total, i.e., 40, 13.33, 4.44, 1.48, 0.49, and […], respectively.
The experimental data were analyzed by XLFit software.

Data set [2] has as its system human pancreatic cancer cell MiaPaca 2 xenograft. The data set can be described thus: Tumor inhibition test on MiaPaca 2 xenograft model. Type of data set: in vivo, Balb/c nude mice. Particulars: intragastric. As to the method:
Balb/c nude mice were used as test animals. In vivo pharmacodynamic test was carried out on human pancreatic cancer cell MiaPaca 2 xenograft (CDX) model to evaluate the anti-tumor effect of the test compounds.
MiaPaca 2 cells were taken from the cell bank and thawed. The cells were added to the DMEM medium (containing 10% FBS, 1% Glu and 1% P/S), and incubated in the CO2 incubator (the temperature of the incubator was 37° C., and the CO2 concentration was 5%). After the cells covered 80-90% of the bottom of the culture flask, the cells were passaged. After passage, the cells continued to be incubated in the CO2 incubator. The process was repeated until the number of cells met the inoculation requirement of the in vivo pharmacodynamic test. The cells in logarithmic growth phase were collected, and counted by the automatic cell counter. According to the counting results, the cells were resuspended with PBS and Matrigel (volume ratio: 1:1) to obtain a cell suspension (density: 8×10^7/ml), which was placed in an ice box for later use.
Female Balb/c nude mice (6-8 weeks old, body weight: about 18-22 grams) were used as test animals. The mice were maintained in an environment free of special pathogens and in a single ventilated cage (five mice per cage). All cages, bedding and water were disinfected before use. All animals had free access to standard certified commercial laboratory animal diets. The nude mice were marked with a disposable universal ear tag for rats and mice before the test. The skin of the inoculation site was disinfected with 75% medical alcohol before the inoculation. Each mouse was inoculated with 0.1 ml of MiaPaca 2 tumor cells (containing 8*10^6 cells) subcutaneously on the right back. When the average tumor volume reached 100 to 200 mm^3, administration was carried out. The test compounds were administered intragastrically daily. The tumor volume (mm^3) was measured with the vernier caliper twice a week. The tumor volume calculation formula: V=0.5*D*d*d, wherein D and d represent the long diameter and short diameter of the tumor, respectively. The anti-tumor efficacy was determined by dividing the average tumor increase volume of the compound-treated animals by the average tumor increase volume of the untreated animals. Tumor growth inhibition rate calculation formula: […]
All animals were euthanized after the experiment.

T1 sequence (Q12809 whole entry): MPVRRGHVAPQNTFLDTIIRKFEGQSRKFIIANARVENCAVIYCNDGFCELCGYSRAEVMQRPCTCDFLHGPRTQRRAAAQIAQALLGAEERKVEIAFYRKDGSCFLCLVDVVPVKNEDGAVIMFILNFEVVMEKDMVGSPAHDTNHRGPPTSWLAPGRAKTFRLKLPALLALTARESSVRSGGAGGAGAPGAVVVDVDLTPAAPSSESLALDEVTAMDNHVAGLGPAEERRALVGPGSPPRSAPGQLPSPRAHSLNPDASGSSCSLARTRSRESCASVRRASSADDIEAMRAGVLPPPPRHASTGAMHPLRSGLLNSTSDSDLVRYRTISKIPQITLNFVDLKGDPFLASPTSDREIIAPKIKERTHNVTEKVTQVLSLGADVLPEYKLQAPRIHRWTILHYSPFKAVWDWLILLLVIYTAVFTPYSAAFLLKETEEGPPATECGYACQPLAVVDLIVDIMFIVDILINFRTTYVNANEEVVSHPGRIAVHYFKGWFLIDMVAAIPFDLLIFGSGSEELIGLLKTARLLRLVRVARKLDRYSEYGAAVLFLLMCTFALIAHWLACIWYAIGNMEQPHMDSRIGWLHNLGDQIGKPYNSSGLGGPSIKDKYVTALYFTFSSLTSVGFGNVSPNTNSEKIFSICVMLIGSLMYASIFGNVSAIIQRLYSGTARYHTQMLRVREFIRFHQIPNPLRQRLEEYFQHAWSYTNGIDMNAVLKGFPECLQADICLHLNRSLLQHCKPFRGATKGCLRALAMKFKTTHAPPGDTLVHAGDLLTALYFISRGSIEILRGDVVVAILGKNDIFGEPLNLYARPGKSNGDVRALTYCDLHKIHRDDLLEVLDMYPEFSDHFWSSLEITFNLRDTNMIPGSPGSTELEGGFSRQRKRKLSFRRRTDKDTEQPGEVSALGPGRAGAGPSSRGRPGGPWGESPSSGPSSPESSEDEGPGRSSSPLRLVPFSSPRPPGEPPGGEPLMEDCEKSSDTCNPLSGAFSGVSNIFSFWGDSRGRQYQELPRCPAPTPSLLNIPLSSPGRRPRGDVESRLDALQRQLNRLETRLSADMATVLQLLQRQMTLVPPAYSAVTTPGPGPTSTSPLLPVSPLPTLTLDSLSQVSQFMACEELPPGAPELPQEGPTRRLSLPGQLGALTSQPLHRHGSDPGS

Turning to `Cc1nc(N2CCC3(CC2)Cc2ncsc2[C@H]3N)c(CO)nc1Sc1ccnc(N)c1Cl` [Example 171, (S)-(6-((2-amino-3-chloropyridin-4-yl)thio)-3-(6-amino-4,6-dihydrospiro[cyclopenta[d]thiazole-5,4′-piperidin]-1′-yl)-5-methylpyrazin-2-yl)methanol], in data set [1], the AUC(0-inf) stood at 1780 ng·h/mL, the concentration peaked (Cmax) at 189 ng/mL, the MRT amounted to 5.78 h and the Tmax came out at 1 h. In data set [1], the half-life is 221 min. In addition, the IC50 in the data set on NCI-H358 cells turned out to be 11.9 nM. In addition, the IC50 at hERG potassium channel stood at 18.8 µM. Besides, in data set [2] (6 mg/kg QD × 3 w), the “Tumor volume (Mean ± SD) Day 0” value is on record as 167 ± 26 (168 ± 32) mm^3, the “TGI Day 21” value was 95.43%, the “Tumor volume (Mean ± SD) Day 21” value is 198 ± 70 mm^3 and the “ΔT/ΔC Day 21” value came to 4.57%.
Turning to `Nc1nc(N2CCC3(CC2)Cc2ccccc2[C@H]3N)c(F)nc1Sc1ccnc(N)c1Cl` [Example 179, (S)-1′-(6-amino-5-((2-amino-3-chloropyridin-4-yl)thio)-3-fluoropyrazin-2-yl)-1,3-dihydrospiro[indene-2,4′-piperidin]-1-amine], in data set [1], the AUC(0-inf) was 3840 ng·h/mL, the concentration peaked (Cmax) at 201 ng/mL, the MRT is 15.2 h and the Tmax came to 2 h. Further, the half-life in data set [1] was 631 min. In addition, the IC50 in the data set on NCI-H358 cells came to 20.9 nM. Further, the IC50 at hERG potassium channel came to 4.51 µM. In data set [2] (6 mg/kg QD × 3 w), the “Tumor volume (Mean ± SD) Day 0” value was 166 ± 28 (168 ± 32) mm^3, the “TGI Day 21” value is recorded as 91.00%, the “Tumor volume (Mean ± SD) Day 21” value stood at 227 ± 37 mm^3 and the “ΔT/ΔC Day 21” value was 9.00%.
In the case of `Nc1nccc(Sc2cnc(N3CCC4(CC=C(C5CC5)[C@H]4N)CC3)cn2)c1Cl` [Example 144, (S)-8-(5-((2-amino-3-chloropyridin-4-yl)thio)pyrazin-2-yl)-2-cyclopropyl-8-azaspiro[4.5]dec-2-en-1-amine], in data set [1], the total exposure AUC(0-inf) was found to be 3310 ng·h/mL, the peak level (Cmax) was 247 ng/mL, the MRT was 9.24 h and the Tmax came out at 1 h. The same compound had a half-life in data set [1] of 389 min. Further, in the data set on NCI-H358 cells, the IC50 turned out to be 9.19 nM. Further, on hERG potassium channel, the IC50 came to 2.34 µM. In data set [2] (3 mg/kg QD × 3 w), the “Tumor volume (Mean ± SD) Day 0” value is 172 ± 26 (173 ± 28) mm^3, the “TGI Day 21” value came to 95.07%, the “Tumor volume (Mean ± SD) Day 21” value came out at 216 ± 66 mm^3 and the “ΔT/ΔC Day 21” value amounted to 4.93%.
As for `Nc1nc(N2CCC3(CC2)Cc2ncsc2[C@H]3N)c(F)nc1Sc1ccnc(N)c1Cl` [Example 181, (S)-1′-(6-amino-5-((2-amino-3-chloropyridin-4-yl)thio)-3-fluoropyrazin-2-yl)-4,6-dihydrospiro[cyclopenta[d]thiazole-5,4′-piperidin]-6-amine], in data set [1], the AUC(0-inf) is 5890 ng·h/mL, the Cmax stood at 614 ng/mL, the MRT came to 5.84 h and the Tmax came to 2 h. Further, the half-life in data set [1] is 213 min. Also, the IC50 in the data set with NCI-H358 cells is 46.5 nM. In addition, on hERG potassium channel, the IC50 came to 21.9 µM. Moreover, in data set [2] (10 mg/kg QD × 3 w), the “Tumor volume (Mean ± SD) Day 0” value is 176 ± 36 (176 ± 39) mm^3, the “TGI Day 21” value is 92.94%, the “Tumor volume (Mean ± SD) Day 21” value stood at 240 ± 86 mm^3 and the “ΔT/ΔC Day 21” value amounted to 7.06%.
